Results as given in publication PMC9782211 (Microorganisms, 2022).

Assays:
[1] = system: male and female Wistar rats; experiment: 14-day repeated dose toxicology, continuous intravenous infusion; format: in vivo, rat
Method: Continuous intravenous infusion was performed over 14 days with 0.5 mg/kg, 3.2 mg/kg, and 20.0 mg/kg Pep19-2.5 and compared to the vehicle in male and female Wistar rats. Groups comprised 10 animals per gender, with an additional 5 animals per gender for recovery animals in the vehicle and high dose groups. The details of the 14-day repeated dose toxicity study will be published elsewhere.
Continuous intravenous infusion was performed over 14 days with 0.5 mg/kg, 3.2 mg/kg and 20.0 mg/kg Pep19-2.5 and compared to the vehicle in male and female Wistar rats. Groups comprised 10 animals per gender, with an additional 5 animals per gender for recovery animals in the vehicle and high dose groups. Based on the parameters determined, the following results were found: […]

human PBMC cells = experiment: Bionas chip-based system, respiration rate; format: cell-based; conditions: 24 h peptide exposure
Method: (§1) Cytotoxicity was assayed by using the chip-based Bionas system with four different cell types. These include human hepatoma cells (HepG2), human colon adenocarcinoma cells (LS-174T), human acute lymphocytic leukemic cells (Jurkat), and human peripheral blood mononuclear cells (hPBMC), provided by Cell Line Services (Piscataway, NJ, USA) and ProBioGen (Berlin, Germany). The cells were seeded on chips, with a density of 200,000 cells/chip for HepG2 and LS-174T, 300,000 cells/chip for Jurkat, and 2 million cells/chip for PBMC.
(§2) A metabolic investigation with four cells and cell lines on the effect of Pep19-2.5 on selected cell parameters was performed. In detail, see Table 1.
(§3) The analysis was performed in the Bionas® 2500 analyzing system by seeding the cells on the chips, with cell numbers of 200,000 for HepG2 cells and LS-174T cells, and 300,000 for Jurkat cells. The suspended cells were embedded on the day of the experiment in agarose and immediately put into the Bionas® 2500 analyzing system. The settling phase (‘RM’) was 5 h. The peptides were added after 5 h for 24 h, then a regeneration phase followed for 4 h (‘RM’), and in the last phase the cells were lysed with 0.2% triton in fresh medium (‘TX’). For the parameters acidification, respiration, and adhesion (impedance), the mean values from two experiments were calculated. […]

[2] = system: LS-174T cells (human colon adenocarcinoma cell line); experiment: Bionas chip-based system, respiration rate; format: cell-based; conditions: 24 h peptide exposure
Method: as §1, §2, §3

Compound: N=C(N)NCCC[C@H](NC(=O)[C@H](Cc1ccc(O)cc1)NC(=O)[C@H](CCCCN)NC(=O)[C@H](CCCCN)NC(=O)[C@H](CS)NC(=O)CN)C(=O)N[C@@H](CCCNC(=N)N)C(=O)N[C@@H](Cc1ccccc1)C(=O)N[C@@H](CCCNC(=N)N)C(=O)N[C@@H](Cc1c[nH]c2ccccc12)C(=O)N[C@@H](CCCCN)C(=O)N[C@@H](Cc1ccccc1)C(=O)N[C@@H](CCCCN)C(=O)NCC(=O)N[C@@H](CCCCN)C(=O)N[C@@H](Cc1ccccc1)C(=O)N[C@@H](Cc1c[nH]c2ccccc12)C(=O)N[C@@H](Cc1ccccc1)C(=O)N[C@@H](Cc1c[nH]c2ccccc12)C(=O)NCC(N)=O [Pep19-2.5]
- injection site findings ([1]; 20 mg/kg dose group): local irritating effect
- body weight gain ([1]; all dose groups): No statistically significant effect
- ophthalmology, clinical chemistry, urine, organ weights ([1]; all dose groups): not affected
- aPTT ([1]; female Wistar rats, 0.5 mg/kg/day, n = 10): 19.9 ± 2.2 s
- PT ([1]; female, 0.5 mg/kg/day, n = 10): 20.3 ± 2.5 s
- TT ([1]; female, 0.5 mg/kg/day, n = 10): 25.7 ± 1.0 s
- TT ([1]; female, 3.2 mg/kg/day, n = 10): 25.4 ± 1.0 s
- TT ([1]; female, 20.0 mg/kg/day, n = 10): 25.8 ± 0.7 s
- mortality ([1]; high dose group 20 mg/kg): One male of the high dose group died
- reticulocytes ([1]; high dose group, both genders, complete recovery): slightly reduced
- behavioural findings ([1]; high dose group, single animals): test item-related behavioural findings (increased activity, muscle tremor, increased incidence of animals showing signs of discomfort, such as chromorhinorrhea or piloerection)
- aPTT ([1]; male Wistar rats, 0.5 mg/kg/day, end of infusion, mean ± SD, n = 9): 19.9 ± 1.7 s
- TT ([1]; male, 0,5 mg/kg/day, n = 9): 25.3 ± 1.0 s
- PT ([1]; male, 0.5 mg/kg/day, n = 9): 20.0 ± 1.1 s
- PT ([1]; male, 3.2 mg/kg/day, n = 10): 21.5 ± 1.3 s
- TT ([1]; male, 3.2 mg/kg/day, n = 10): 25.0 ± 0.9 s
- aPTT ([1]; male, 3.2 mg/kg/day, n = 10): 18.6 ± 1.8 s
- TT ([1]; male, 20.0 mg/kg/day, n = 7): 25.0 ± 0.8 s
- PT ([1]; male, n = 7, printed 0.5 mg/kg/day): 20.9 ± 1.3 s
- histopathological systemic toxicity ([1]; rat, in vivo): absence of any histopathological systemic toxicity
- concentration above which respiration rate increased significantly (human PBMC cells): above 50 μg/mL
- concentration above which toxic effects are observed (respiration rate) [2]: above 20 μg/mL
